Tests used:
human V1a receptor = human V1a receptor (Homo sapiens, UniProt P37288); test: Cellular in vitro assay for determining vasopressin receptor activity, V1a receptor cell line (photoprotein luminescence); assay type: cell-based; conditions: for IC50: CHO cell line transfected with the human V1a receptor, agonist [Arg8]-vasopressin at EC50 concentration, read-out: IC50 hV1a; for ratio IC50 hV2/hV1a: selectivity ratio of the cellular IC50 values
Summary of the method: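 CHO K1 cells stably expressing human V1a receptor with aequorin photoprotein, loaded overnight with coelenterazine. Compounds preincubated 10 min at various concentrations, then challenged with [Arg^8]-vasopressin at EC50 concentration. Calcium-driven luminescence read immediately; IC50 values derived.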

human V2 receptor = biological target: T1, human V2 receptor (Homo sapiens, UniProt P30518); test: Cellular in vitro assay for determining vasopressin receptor activity, V2 receptor cell line (CRE-luciferase); assay type: cell-based; conditions: CHO cell line transfected with the human V2 receptor; agonist [Arg8]-vasopressin at EC50 concentration; read-out: IC50 hV2
T1 construct: expressed in transfected cells; host or cells: CHO K1 (ATCC) expressing firefly luciferase under a CRE-responsive promoter
T1 sequence (P30518 whole entry): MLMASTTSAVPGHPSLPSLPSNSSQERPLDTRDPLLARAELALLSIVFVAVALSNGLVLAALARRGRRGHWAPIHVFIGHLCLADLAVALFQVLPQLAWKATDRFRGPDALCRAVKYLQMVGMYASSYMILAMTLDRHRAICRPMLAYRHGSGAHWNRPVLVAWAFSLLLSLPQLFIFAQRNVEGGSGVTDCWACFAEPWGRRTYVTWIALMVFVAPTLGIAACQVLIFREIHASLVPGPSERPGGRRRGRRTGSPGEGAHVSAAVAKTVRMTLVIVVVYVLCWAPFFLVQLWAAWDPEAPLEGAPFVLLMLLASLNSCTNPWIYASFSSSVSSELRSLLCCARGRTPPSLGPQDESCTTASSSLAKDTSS

Chain of human V1a receptor (P37288 whole entry): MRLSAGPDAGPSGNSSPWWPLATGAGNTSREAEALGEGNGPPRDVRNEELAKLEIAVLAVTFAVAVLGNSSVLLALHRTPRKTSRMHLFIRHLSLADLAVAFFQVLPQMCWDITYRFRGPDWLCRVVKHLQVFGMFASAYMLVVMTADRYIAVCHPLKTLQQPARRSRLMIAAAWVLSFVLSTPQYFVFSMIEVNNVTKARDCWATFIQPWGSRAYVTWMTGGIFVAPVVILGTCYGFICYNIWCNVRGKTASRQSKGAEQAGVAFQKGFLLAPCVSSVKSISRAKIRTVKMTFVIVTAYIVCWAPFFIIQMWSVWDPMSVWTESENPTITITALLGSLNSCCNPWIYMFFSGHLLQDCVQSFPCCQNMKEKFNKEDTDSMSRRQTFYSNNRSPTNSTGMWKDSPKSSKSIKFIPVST

Compound | IC50 (human V1a receptor) | ratio IC50 hV2/hV1a (human V1a receptor) | IC50 (human V2 receptor)
NC(=O)C1CN(c2nc(Cn3nc(-c4ccc(Cl)cc4)n(C[C@H](O)C(F)(F)F)c3=O)nn2-c2ccccc2Cl)CCN1 (mixture of isomers) [Example 33, 4-[1-(2-Chlorophenyl)-3-({3-(4-chlorophenyl)-5-oxo-4-[(2S)-3,3,3-trifluoro-2-hydroxypropyl]-4,5-dihydro-1H-1,2,4-triazol-1-yl}methyl)-1H-1,2,4-triazol-5-yl]piperazine-2-carboxamide] | 0.37 nM | 25.2 | 9.25 nM
O=C1NCCN1CCNc1nc(Cn2nc(-c3ccc(Cl)cc3)n(C[C@H](O)C(F)(F)F)c2=O)nn1-c1ccccc1Cl [Example 46, 5-(4-Chlorophenyl)-2-{[1-(2-chlorophenyl)-5-{[2-(2-oxoimidazolidin-1-yl)ethyl]amino}-1H-1,2,4-triazol-3-yl]methyl}-4-[(2S)-3,3,3-trifluoro-2-hydroxypropyl]-2,4-dihydro-3H-1,2,4-triazol-3-one] | 0.65 nM | 8.5 | 5.47 nM
CC(C)(CNc1nc(Cn2nc(-c3ccc(Cl)cc3)n(C[C@H](O)C(F)(F)F)c2=O)nn1-c1ccccc1Cl)NS(C)(=O)=O [Example 26] | 0.4 nM | 5.6 | 2.2 nM
CC1(O)CCN(c2nc(Cn3nc(-c4ccc(Cl)cc4)n(C[C@H](O)C(F)(F)F)c3=O)nn2-c2ccccc2Cl)C1 (single isomer, unassigned) [Example 31] | 1.08 nM | 7.7 | 8.35 nM
O=C1CCC(CNc2nc(Cn3nc(-c4ccc(Cl)cc4)n(C[C@H](O)C(F)(F)F)c3=O)nn2-c2ccccc2Cl)N1 (single isomer, unassigned) [Example 65] | 0.63 nM | 10.2 | 6.45 nM
CC(F)(F)CNc1nc(Cn2nc(-c3ccc(Cl)cc3)n(C[C@H](O)C(F)(F)F)c2=O)nn1-c1ccccc1Cl [Example 23, 5-(4-Chlorophenyl)-2-({1-(2-chlorophenyl)-5-[(2,2-difluoropropyl)amino]-1H-1,2,4-triazol-3-yl}methyl)-4-[(2S)-3,3,3-trifluoro-2-hydroxypropyl]-2,4-dihydro-3H-1,2,4-triazol-3-one] | 1.25 nM | 1.0 | 1.2 nM
O=c1n(Cc2nc(N3CCC(O)(C(F)(F)F)C3)n(-c3ccccc3Cl)n2)nc(-c2ccc(Cl)cc2)n1C[C@H](O)C(F)(F)F (single isomer, unassigned) [Example 15] | 3.4 nM | 3.4 | 11.4 nM
O=c1n(Cc2nc(N3CCC3)n(-c3cccc(F)c3)n2)nc(-c2ccc(Cl)cc2)n1C[C@H](O)C(F)(F)F [Example 121, 2-{[5-(Azetidin-1-yl)-1-(3-fluorophenyl)-1H-1,2,4-triazol-3-yl]methyl}-5-(4-chlorophenyl)-4-[(2S)-3,3,3-trifluoro-2-hydroxypropyl]-2,4-dihydro-3H-1,2,4-triazol-3-one] | 6.4 nM | 1.0 | 6.12 nM
O=c1n(Cc2nc(N3CC4(C3)CS(=O)(=O)C4)n(-c3ccccc3Cl)n2)nc(-c2ccc(Cl)cc2)n1C[C@H](O)C(F)(F)F [Example 47, 5-(4-Chlorophenyl)-2-{[1-(2-chlorophenyl)-5-(2,2-dioxido-2-thia-6-azaspiro[3.3]hept-6-yl)-1H-1,2,4-triazol-3-yl]methyl}-4-[(2S)-3,3,3-trifluoro-2-hydroxypropyl]-2,4-dihydro-3H-1,2,4-triazol-3-one] | 0.96 nM | 5.8 | 5.63 nM
O=C1CCC(Nc2nc(Cn3nc(-c4ccc(Cl)cc4)n(C[C@H](O)C(F)(F)F)c3=O)nn2-c2ccccc2Cl)CN1 (mixture of isomers) [Example 60, 5-{[1-(2-Chlorophenyl)-3-({3-(4-chlorophenyl)-5-oxo-4-[(2S)-3,3,3-trifluoro-2-hydroxypropyl]-4,5-dihydro-1H-1,2,4-triazol-1-yl}methyl)-1H-1,2,4-triazol-5-yl]amino}piperidin-2-one] | 0.44 nM | 12.3 | 5.4 nM
O=c1n(Cc2nc(N3CCNC(C(F)(F)F)C3)n(-c3ccccc3Cl)n2)nc(-c2ccc(Cl)cc2)n1C[C@H](O)C(F)(F)F (mixture of isomers) [Example 66] | 0.37 nM | 18.9 | 6.9 nM

Results, then the compound that gave them:

IC50 (human V1a receptor) | ratio IC50 hV2/hV1a (human V1a receptor) | IC50 (human V2 receptor) | Compound
0.56 nM | 25.7 | 14.3 nM | O=c1n(Cc2nc(N3CCOCC3)n(-c3ccccc3Cl)n2)nc(-c2ccc(Cl)cc2)n1C[C@H](O)C(F)(F)F [Example 83, 5-(4-Chlorophenyl)-2-{[1-(2-chlorophenyl)-5-(morpholin-4-yl)-1H-1,2,4-triazol-3-yl]methyl}-4-[(2S)-3,3,3-trifluoro-2-hydroxypropyl]-2,4-dihydro-3H-1,2,4-triazol-3-one]
26.5 nM | 11.7 | 310 nM | O=c1n(Cc2nc(N3CCNC(C(F)(F)F)C3)n(CCC(F)(F)F)n2)nc(-c2ccc(Cl)cc2)n1C[C@H](O)C(F)(F)F (mixture of isomers) [Example 106, 5-(4-Chlorophenyl)-4-[(2S)-3,3,3-trifluoro-2-hydroxypropyl]-2-({5-[3-(trifluoromethyl)piperazin-1-yl]-1-(3,3,3-trifluoropropyl)-1H-1,2,4-triazol-3-yl}methyl)-2,4-dihydro-3H-1,2,4-triazol-3-one]
10.3 nM | – | 1800 nM | CC1(C)CN(c2nc(Cn3nc(-c4ccc(Cl)cc4)n(C[C@H](O)C(F)(F)F)c3=O)nn2CCC(F)(F)F)CCN1 [Example 114, 5-(4-Chlorophenyl)-2-{[5-(3,3-dimethylpiperazin-1-yl)-1-(3,3,3-trifluoropropyl)-1H-1,2,4-triazol-3-yl]methyl}-4-[(2S)-3,3,3-trifluoro-2-hydroxypropyl]-2,4-dihydro-3H-1,2,4-triazol-3-one]
0.56 nM | 176.9 | 99.5 nM | O=C1CN(c2nc(Cn3nc(-c4ccc(Cl)cc4)n(C[C@H](O)C(F)(F)F)c3=O)nn2-c2ncccc2Cl)CCN1 [Example 97, 4-[3-({3-(4-Chlorophenyl)-5-oxo-4-[(2S)-3,3,3-trifluoro-2-hydroxypropyl]-4,5-dihydro-1H-1,2,4-triazol-1-yl}methyl)-1-(3-chloropyridin-2-yl)-1H-1,2,4-triazol-5-yl]piperazin-2-one]
1.35 nM | 1.5 | 1.98 nM | COCCNc1nc(Cn2nc(-c3ccc(Cl)cc3)n(C[C@H](O)C(F)(F)F)c2=O)nn1-c1cccc(F)c1 [Example 116, 5-(4-Chlorophenyl)-2-({1-(3-fluorophenyl)-5-[(2-methoxyethyl)amino]-1H-1,2,4-triazol-3-yl}methyl)-4-[(2S)-3,3,3-trifluoro-2-hydroxypropyl]-2,4-dihydro-3H-1,2,4-triazol-3-one]
0.9 nM | 24.4 | 22 nM | NCCNc1nc(Cn2nc(-c3ccc(Cl)cc3)n(C[C@H](O)C(F)(F)F)c2=O)nn1-c1ccccc1Cl [Example 70, 2-({5-[(2-Aminoethyl)amino]-1-(2-chlorophenyl)-1H-1,2,4-triazol-3-yl}methyl)-5-(4-chlorophenyl)-4-[(2S)-3,3,3-trifluoro-2-hydroxypropyl]-2,4-dihydro-3H-1,2,4-triazol-3-one]
1.6 nM | 11.0 | 17.7 nM | O=c1n(Cc2nc(N3CC(F)(F)C3)n(-c3ccccc3Cl)n2)nc(-c2ccc(Cl)cc2)n1C[C@H](O)C(F)(F)F [Example 81, 5-(4-Chlorophenyl)-2-{[1-(2-chlorophenyl)-5-(3,3-difluoroazetidin-1-yl)-1H-1,2,4-triazol-3-yl]methyl}-4-[(2S)-3,3,3-trifluoro-2-hydroxypropyl]-2,4-dihydro-3H-1,2,4-triazol-3-one]
0.36 nM | 7.8 | 2.79 nM | O=c1n(Cc2nc(NCCO)n(-c3ccccc3Cl)n2)nc(-c2ccc(Cl)cc2)n1C[C@H](O)C(F)(F)F [Example 80, 5-(4-Chlorophenyl)-2-({1-(2-chlorophenyl)-5-[(2-hydroxyethyl)amino]-1H-1,2,4-triazol-3-yl}methyl)-4-[(2S)-3,3,3-trifluoro-2-hydroxypropyl]-2,4-dihydro-3H-1,2,4-triazol-3-one]
5.59 nM | 2.1 | 11.9 nM | O=c1n(Cc2nc(N3CCCC3)n(-c3cccc(F)c3)n2)nc(-c2ccc(Cl)cc2)n1C[C@H](O)C(F)(F)F [Example 88, 5-(4-Chlorophenyl)-2-{[1-(3-fluorophenyl)-5-(pyrrolidin-1-yl)-1H-1,2,4-triazol-3-yl]methyl}-4-[(2S)-3,3,3-trifluoro-2-hydroxypropyl]-2,4-dihydro-3H-1,2,4-triazol-3-one]
9.4 nM | 41.0 | 385 nM | O=C1CC[C@@H](CNc2nc(Cn3nc(-c4ccc(Cl)cc4)n(C[C@H](O)C(F)(F)F)c3=O)nn2CCC(F)(F)F)N1 [Example 109, 5-(4-Chlorophenyl)-2-{[5-({[(2S)-5-oxopyrrolidin-2-yl]methyl}amino)-1-(3,3,3-trifluoropropyl)-1H-1,2,4-triazol-3-yl]methyl}-4-[(2S)-3,3,3-trifluoro-2-hydroxypropyl]-2,4-dihydro-3H-1,2,4-triazol-3-one]
0.79 nM | 2.1 | 1.63 nM | CC1(CNc2nc(Cn3nc(-c4ccc(Cl)cc4)n(C[C@H](O)C(F)(F)F)c3=O)nn2-c2ccccc2Cl)COC1 [Example 78, 5-(4-Chlorophenyl)-2-{[1-(2-chlorophenyl)-5-{[(3-methyloxetan-3-yl)methyl]amino}-1H-1,2,4-triazol-3-yl]methyl}-4-[(2S)-3,3,3-trifluoro-2-hydroxypropyl]-2,4-dihydro-3H-1,2,4-triazol-3-one]

Reference: US11331314B2, “Amine substituted triazole derivatives and uses thereof” (Bayer Pharma Aktiengesellschaft, priority 2017, dated 2022)
